Assay results reported in patent US20060269995A1, “Novel assays utilizing nicotinic acetylcholine receptor subunits” (priority 2005, published 2006).
Like-named read-outs stand apart in the source and are kept apart here.

What was measured:
[1] = test system: Dα6 and C. elegans ric3 expressed in D.Mel-2 cells; assay: [3H]DHSA radioligand displacement binding in D.Mel-2 cells; parameters: species or system Drosophila melanogaster
Protocol: D.Mel-2 cells were seeded into 75 cm^2 flasks at 1.9×10^7 cells/flask in Drosophila SFM containing antibiotic/antimicotic and incubated overnight at 27° C. The transfection mix was prepared in 12×75 mm polystyrene tubes by mixing 1630 μl sterile water, 40 μg pIB/V5-HisA/ric3, 40 μg pIB/V5-HisA/30D and 250 μl CellFectin. The reagents were mixed gently and incubated at room temp for 15 minutes. While the transfection mix was incubating, the cells were washed with 10 ml fresh Drosophila SFM without antibiotics; this media was then removed from the cells and replaced with 6 ml fresh Drosophila SFM without antibiotics. To the transfection mix was added 4 ml Drosophila SFM without antibiotics and this was then transferred to the flask. The reagents were gently mixed by pipetting up and down and then incubated overnight at 27° C.
D.Mel-2 cells were purchased from Invitrogen (Carlsbad, Calif.) and grown in disposable 125 ml shake flasks using 50 ml volume. Cells were subcultured to 3×10^5 cells/ml twice per week in Drosophila SFM containing 5 ml/L Antibiotic-Antimycotic (100×) (Gibco, Carlsbad, Calif.). D.Mel-2 cells were seeded into a 12-well plate at a cell density of 5×10^5 cells/well and incubated overnight at 27° C. In a 12×75 mm polystyrene tube 6 μg pIB/V5-HisA/ric3, 82 μl sterile H2O and 12 μl CellFectin (Invitrogen, Carlsbad, Calif.) were added. The sample was mixed gently and incubated at room temperature for 15 minutes. While the transfection mix was incubating, media from one well of cells was removed and replaced with 1 ml fresh media without antibiotics. After 15 minutes, the media was removed from cells. To this transfection mix, 0.5 ml media (no antibiotics) was added. This solution was then added to the cells. The mixture was incubated for 48 hrs at 27° C. After 48 hrs, the cells were scraped from the plate using a cell scraper and split into 4 wells of a 6-well plate each containing 2 ml Drosophila SFM with antibiotics. Cells were allowed to attach for 1 hr at 27° C.; the media was removed and replaced with 2 ml fresh media containing 25 μg/ml Blasticidin S (Invitrogen, Carlsbad, Calif.). Cells were incubated at 27° C. for 5 days. After 5 days, the cells were scraped loose from the wells and combined into one tube. Cells were spun down at 600 rpm in a tabletop centrifuge; the media was removed and the cells were resuspended into a 50 ml shake culture in fresh Drosophila SFM containing 25 μg/ml Blasticidin S. The cells were incubated at 27° C./140 rpm. Cells were subcultured twice weekly back to cell density of 3×10^5 cells/ml. After 4 weeks the selection was cut back to 10 μg/ml Blasticidin S. After 3 months of growth under selection, a 12 well plate was seeded at 5×10^5 cells/well and cells were incubated over night at 27° C. The following reagents were added to each of three 12×75 mm polystyrene tubes: 2 μg pMT/V5-HisA/30D, 0.15 μg pCoHygro (Invitrogen, Carlsbad, Calif.) (a […] ratio of expression plasmid:selection plasmid), 89 μl sterile H2O and 12 μl CellFectin. The samples were mixed gently and incubated at room temp for 15 minutes and then transfected as described above. After 24 hrs, the media containing transfection mix was removed and replaced with 1 ml fresh media containing antibiotics. The incubation was continued at 27° C. for another 24 hrs. Cells were scraped loose from the 12-well plate (3 wells) and split into 2, 6-well plates. Cells were allowed to attach for 6 hours at which point, the media was replaced with 2 ml/well fresh media containing 200, 150, 100 or 50 μg/ml hygromycin B. The incubation was continued at 27° C.; every 4-5 days, the media was replaced with media containing hygromycin every 4-5 days. After 2 weeks of selection in the plates, the cells from the 200 μg/ml selection, were scraped loose and then gently pelleted and resuspended in 25 ml fresh media containing 200 μg/ml hygromycin B and then placed into a 125 ml shake flask.

[2] = test system: 34E/30D; format: cell-based, Drosophila melanogaster; parameters: key to the marks not given beside the values; details: nicotine 1 mM for 30 seconds, −60 mV, peak current
Protocol: (§1) Xenopus laevis (Xenopus 1, Ann Arbor, Mich.; Nasco, Fort Atkinson, Wis.) were anesthetized by bathing in a solution of 2 g/l tricaine methane sulfonate, and oocytes were surgically removed from the frog and placed in a culture solution that consisted of 96 mM NaCl, 2 mM KCl, 1.8 mM CaCl2, 1 mM MgCl2, 5 mM HEPES, 2.5 mM Na-pyruvate, 100 units/ml penicillin, and 0.1 mg/ml streptomycin, pH 7.6. Oocytes were dispersed in a nominally zero Ca^2+ protease treatment solution to defolliculate the oocytes. The protease treatment solution consisted of either 88 mM NaCl, 2.5 mM KCl, 1 mM MgCl2, 5 mM HEPES, 2.5 mM Na-pyruvate, 100 units/ml penicillin, and 0.1 mg/ml streptomycin, pH 7.6 plus 1.5 mg/ml collagenase IA (Sigma Chemical Co., St. Louis, Mo.). After isolation, the oocytes were thoroughly rinsed and returned to the above Ca^2+ containing culture solution and stored at 18° C.
(§2) Synthesis of cRNA was performed as follows: Plasmid DNA was linearized with one of the following restriction enzymes; Not I, Xho I or Nhe I. The linearized DNA was subsequently used as template for cRNA synthesis using T7 mMessage mMachine kit (Ambion, Austin, Tex.) following the manufacturer's instructions.
(§3) Micropipettes for injection of cRNA into Xenopus oocytes were pulled on a DMZ-Universal Puller (Zeitz-Instruments, München, Germany). The cRNA to be injected was drawn up into the micropipette with negative pressure. Approximately 10-50 ng of cRNA was injected into the oocytes by applying positive pressure using a Nanoject II oocyte injector (Drummond Scientific Co., Broomall, Pa.). Nucleic acid was introduced into the oocytes as follows: (1) nicotinic acetylcholine receptor alpha-6 subunit subunit (30D) (2) nicotinic alpha-7 receptor subunit (34E); (3) nicotinic acetylcholine receptor alpha-6 subunit and C. elegans ric-3 (30D and ric-3); (4) nicotinic alpha-7 receptor subunit and C. elegans ric-3 (34E and ric-3); (5) nicotinic acetylcholine receptor alpha-6 subunit and nicotinic alpha-7 receptor subunit (30D and 34E); and, (6) nicotinic acetylcholine receptor alpha-6 subunit, nicotinic alpha-7 receptor subunit and C. elegans ric-3 (30D, 34E and ric-3).
(§4) The control external solution for voltage clamp recordings consisted of 88 mM NaCl, 1 mM KCl, 0.41 mM CaCl2, 2.4 mM NaHCO3, 0.3 mM Ca(NO3)2, 0.82 mM MgSO4·7 H2O, and 15 mM HEPES, pH 7.6. The recording chamber was continuously perfused with a gravity-fed perfusion system. Nicotine (1 mM) was added to the external solution and then added to the perfusate for 30 seconds. Then, nicotine was washed from the external solution a minimum of 10 minutes. Thereafter, spinosyn A was dissolved in dimethylsulfoxide (DMSO) and then dissolved in the external solution at a final concentration of 10 μM and then added to the perfusate for 60 seconds. […]

[3] = test system: 34E/30D/ric-3; format: cell-based, Drosophila melanogaster; parameters: key to the marks not given beside the values; details: nicotine 1 mM for 30 seconds, −60 mV, peak current
Protocol: as §1, §2, §3, §4

[4] = test system: Dα6-nicotinic receptor; format: binding, Drosophila melanogaster
Protocol: Xenopus oocytes were injected as previously described for the electrophysiological assay and were used intact for binding assays.
Two main radioligands were used in binding assays: the conventional α7 radioligand, [^3H]methyllycaconitine (MLA) and [^3H]dihydrospinosyn A (DHSA). For both radioligands, the Binding Buffer used consisted of 10 mM sodium phosphate (7.2-7.4). […] For Xenopus oocyte binding assays, oocytes were pooled (2-5 oocytes) and transferred to 1 ml Binding Buffer. This was followed by gently aspirating the Binding Buffer and replacing with fresh Binding Buffer twice, to wash out any residual oocyte bathing media. The final volume of buffer added to each pool of oocytes was 50-100 μl. […] Subsequent dilutions were made in Binding Buffer. The final concentration of solvent was maintained at less than 0.1% in each well. 25 μl of unlabeled competing compounds were added to the cell suspensions or oocytes. Cells or cell extracts were pre-incubated with compounds for 15-30 minutes, at 10° C. (for [^3H]DHSA) and room-temperature for [^3H]MLA. The samples were gently shaken using a plate shaker. […] Filter mats were dried in an oven at 60° C. and the radioactivity from samples was counted for three minutes with a Wallac MicroBeta Counter (Wallac, Conn.) using Meltilex solid-scintillant (PerkinElmer, Finland). […]

[5] = test system: 30D (nicotinic acetylcholine receptor alpha-6 subunit); format: cell-based, Drosophila melanogaster; note: key: '−' indicates a negligible current was induced; '+' indicates a small amplitude current; '++' indicates a moderate amplitude current; '++++' indicates a large amplitude current
Protocol: as §1, §2, §3
(§5) The control external solution for voltage clamp recordings consisted of 88 mM NaCl, 1 mM KCl, 0.41 mM CaCl2, 2.4 mM NaHCO3, 0.3 mM Ca(NO3)2, 0.82 mM MgSO4·7 H2O, and 15 mM HEPES, pH 7.6. The recording chamber was continuously perfused with a gravity-fed perfusion system. Nicotine (1 mM) was added to the external solution and then added to the perfusate for 30 seconds. Then, nicotine was washed from the external solution a minimum of 10 minutes. Thereafter, spinosyn A was dissolved in dimethylsulfoxide (DMSO) and then dissolved in the external solution at a final concentration of 10 μM and then added to the perfusate for 60 seconds. Then, the spinosyn A was washed from the external solution. The final concentration of DMSO never exceeded 0.1% (v/v).

[6] = test system: 34E (nicotinic acetylcholine receptor alpha-5 subunit); format: cell-based, Drosophila melanogaster; note: key: '−' indicates a negligible current was induced; '+' indicates a small amplitude current; '++' indicates a moderate amplitude current; '++++' indicates a large amplitude current
Protocol: as §1, §2, §3, §5

[7] = test system: 30D/ric-3; format: cell-based, Drosophila melanogaster; details: nicotine 1 mM for 30 seconds, −60 mV, peak current
Protocol: as §1, §2, §3, §5

[8] = test system: 34E/ric-3; format: cell-based, Drosophila melanogaster; note: key: '−' indicates a negligible current was induced; '+' indicates a small amplitude current; '++' indicates a moderate amplitude current; '++++' indicates a large amplitude current
Protocol: as §1, §2, §3, §5

[9] = test system: Drosophila melanogaster flies of a spinosyn-resistant strain; assay: Adult fly mortality screen, spinosyn-resistant flies; format: in vivo
Protocol: (§6) Ten adult Drosophila melanogaster flies (5 males and 5 females) of the Oregon wild-type strain and ten adult flies of a spinosyn-resistant strain were used per treatment. Two sets (of 10 flies) were set-up per treatment. Stocks of spinosyn A and a 21-butenyl-spinosyn analog were formulated at 1000 ppm in 2:1 acetone:water and then diluted to the required concentration in 10% sucrose. Vials received 500 ul of treatment (or solvent for controls) via cotton wicks (approximately ¼ inch) and flies were added to each vial and capped with a cotton plug. Flies were monitored over 72 hours post-treatment while being maintained at room-temperature with a 12:12 light:dark cycle.
(§7) In addition, the spinosyn A resistant flies were >100-fold resistant (based on LD50) to the new class of spinosyns, represented by the 21-butenyl spinosyns.

[10] = test system: Drosophila melanogaster flies of the Oregon wild-type strain; assay: Adult fly mortality screen, wild-type flies; format: in vivo; details: 100 ppm in 10% sucrose via cotton wick, 72 hours post-treatment
Protocol: as §6, §7

[11] = D.Mel-2 cells expressing Dα6 and C. elegans ric3

## CCN1C[C@]2(COC(=O)c3ccccc3N3C(=O)C[C@H](C)C3=O)CC[C@H](OC)[C@@]34[C@@H]5C[C@H]6[C@H](OC)[C@@H]5[C@](O)(C[C@@H]6OC)[C@@](O)([C@@H](OC)[C@H]23)[C@@H]14 [MLA, methyllycaconitine]
[1]; [11]
  displacement of [3H]DHSA binding: can be demonstrated at higher concentrations
[1]; [3H]DHSA binding assay, D.Mel-2 cells
  overall affinity for this receptor complex: relatively poor

## CN1CCCC1c1cccnc1 (centres unmarked) [Nicotine, nicotine]
[2]
  Nicotine Response: ++
[3]
  Nicotine Response: ++++
[1]; [11]
  displacement of [3H]DHSA binding: displacement
[4]
  % Displacement of Total Binding: 72%
[5]
  Nicotine Response: −
[6]
  Nicotine Response: +
[7]
  Nicotine Response: +
[8]
  Nicotine Response: +

## CN1[C@@H](CC(=O)c2ccccc2)CCC[C@H]1C[C@H](O)c1ccccc1 [lobeline]
[1]; [11]
  displacement of [3H]DHSA binding: did not significantly displace

## CN1[C@@H]2CC[C@H]1C[C@@H](OC(=O)C(CO)c1ccccc1)C2 (some centres unmarked) [atropine]
[1]
  displacement of [3H]DHSA binding: not

## alpha-bungarotoxin
[1]
  displacement of [3H]DHSA binding: can be demonstrated at higher concentrations
  overall affinity for this receptor complex: relatively poor

## C[C@@H]1O[C@H](C[N+](C)(C)C)C[C@H]1O [muscarine]
[1]; [11]
  displacement of [3H]DHSA binding: not

## CC[C@H]1CCC[C@H](O[C@H]2CC[C@H](N(C)C)[C@@H](C)O2)[C@@H](C)C(=O)C2=C[C@H]3[C@@H]4C[C@H](O[C@@H]5O[C@@H](C)[C@H](OC)[C@@H](OC)[C@H]5OC)C[C@H]4CC[C@H]3[C@@H]2CC(=O)O1 [dihydrospinosyn A]
[1]; [11]
  displacement of [3H]DHSA binding: significant displacement

## CN1COCN(Cc2cnc(Cl)s2)/C1=N\[N+](=O)[O-] [thiamethoxam]
[1]; [11]
  displacement of [3H]DHSA binding: did not significantly displace

## C[C@H](O)[C@H](O)[C@@H](O)[C@@H](O)C=O [rhamnose]
[1]; [11]
  displacement of [3H]DHSA binding: No significant displacement

## 21-butenyl spinosyn
[9]; 100 ppm in 10% sucrose via cotton wick, 72 hours post-treatment, spinosyn-resistant flies
  mortality: no significant mortality
[9]; dose-response data, LD50, resistant vs wild-type flies
  resistance of spinosyn A resistant flies compared to wild-type flies (based on LD50): > 100 fold
[10]
  mortality: all wild-type flies exhibited mortality

## C[N+](C)(C)CCOC(N)=O.[Cl-] [carbamylcholine]
[1]; [11]
  displacement of [3H]DHSA binding: did not significantly displace

## O=[N+]([O-])NC1=NCCN1Cc1ccc(Cl)nc1 [imidacloprid]
[1]; [11]
  displacement of [3H]DHSA binding: did not significantly displace

## CC[C@H]1CCC[C@H](O)[C@@H](C)C(=O)C2=C[C@@H]3[C@@H](C=C[C@@H]4C[C@@H](O[C@@H]5O[C@@H](C)[C@H](OC)[C@@H](OC)[C@H]5OC)C[C@@H]34)[C@@H]2CC(=O)O1 [pseudoagylcone of spinosyn A]
[1]; [11]
  displacement of [3H]DHSA binding: Nor was there significant displacement

## Clc1ccc(C2CC3CCC2N3)cn1 (centres unmarked) [epibatidine]
[1]; [11]
  displacement of [3H]DHSA binding: did not significantly displace

## NS(=O)(=O)c1cc(C(=O)O)c(NCc2ccco2)cc1Cl [furosemide]
[1]; [11]
  displacement of [3H]DHSA binding: No significant displacement
